Values of other authors as cited in patent US20200397766A1, “POROUS EMBOLIZATION MICROSPHERES COMPRISING DRUGS” (VAN RIJN BEHEER B.V., priority 2018, published 2020).

solubility in DMSO (DMSO): high solubility in DMSO
solubility in water (water): low solubility in water
SMILES: OCCN(CCO)c1nc(N2CCCCC2)c2nc(N(CCO)CCO)nc(N3CCCCC3)c2n1 [Dipyridamole, dipyridamole]
